Reference: patent publication US20110201113A1, “Ex Vivo Progenitor and Stem Cell Expansion and Differentiation for Use in the Treatment of Disease of the Nervous System” (priority 2010, published 2011)

Key:
Human neural stem cells [1] = experiment: Proliferation of neural stem cells treated with various bioactive molecules (alternating growth conditions, cell counting); type: cell-based; conditions: second 8 weeks of 16; factor + 1% FBS alternating weekly with EGF, bFGF, LIF, no FBS
Procedure: hNSC's were alternately cultured in media containing a certain growth factor and serum (GF+FBS) or in the media containing EFL but lacking the presence of fetal bovine serum (EFL−FBS) as shown in FIG. 3. The media was changed on days 7 and 14 after plating the cells. This example utilized an initial incubation in EFL−FBS, followed by incubation in media including FBS. Experimental analysis of hNSCs was carried out on days 5, 10, 15, and 20, if not otherwise indicated.
Medium 2 (+GFs): DMEM/F12 (1:1), 2% B27 (Gibco), 1% Pen-Strep (PAA), 1% FBS (Gibco)+one of the combination of growth factors (CNTF, Jagged, SHH, TGFa, Wnt1, Wnt5A, or all)
7 different combinations of growth factors were used: 2.1. CNTF (20 ng/ml, Peprotech); 2.2. Jagged (20 ng/ml, Peprotech); 2.3. SHH (20 ng/ml, Peprotech); 2.4. TGFa (20 ng/ml, Peprotech); 2.5 Wnt1 (20 ng/ml, R&D); 2.6 Wnt5A (20 ng/ml, R&D); and 2.7 all above.
On days 5, 10, 15, and 20, if not otherwise indicated, neurospheres were dissociated using trypsin and single cells were counted using a hemocytometer. As a control, hNSCs were continuously grown in the absence of serum, but in the presence of growth factors EFL (control). The color code indicates the specific growth factor (GF) that was used in the GF+FBS mode. Abbreviations used: GF, growth factor; CNTF, ciliary neurotrophic factor; Jagged, SHH, sonic hedgehog; TGFα, transforming growth factor alpha; Wnt1, wingless-type MMTV integration site family, member 1; Wnt5A wingless-type MMTV integration site family, […]; or combined (CNTF, Jagged, SHH, TGFα, Wnt1, Wnt5A), E, EGF; F, bFGF; L, LIF.
Human neural stem cells are most routinely grown in medium supplemented with EGF and bFGF (and LIF). […] Cells were grown for 16 weeks and counted regularly every two weeks. […] Cells were counted 8 times. […] At the last time point analyzed, 5 times more cells were grown with control medium than under any other conditions.

Human neural stem cells [2] = experiment: Differentiation of neural stem cells to neurons and astrocytes (bTubIII immunostaining on laminin); type: cell-based; conditions: cells taken after 8 and 12 weeks in culture, 14 days on laminin without factors; 3 random fields counted
Procedure: Next, how the stimulation of signaling pathways affects the commitment of human neural stem cells to neuronal and glial lineages was examined. For differentiation, samples of cells grown in all 8 conditions were removed from proliferating cell populations (after 8 and 12 weeks in culture) and plated onto laminin coated coverslips. All additional factors were excluded from culture medium and cells were grown for 14 days. Next, cells were fixed and stained for neural and glial markers as described previously. Examples of immunocytochemistry analysis can be seen on FIG. 8. […] No cells were detected as positive for oligodendrocyte marker O4. After immunostaining, cells from 3 random fields were counted and their differentiation potential was estimated according to the number of bTubIII positive cells present in samples. Results can be seen on FIG. 9. […] Cells grown with Wnt5a had the least percentage of bTubIII positive cells (33%), all the other conditions gave 41 to 47% of bTubIII positive cells (in control 45%).

Row | Molecule | support of cell growth (Human neural stem cells [1]) | percentage of bTubIII positive cells (Human neural stem cells [2]) [%]
1 | TGFa: transforming growth factor alpha, 20 ng/ml, Peprotech | slightly more efficient than the others | –
2 | Jagged-1: Jagged growth factor, 20 ng/ml, Peprotech | slightly more efficient than the others | –
3 | Wnt5a: wingless-type MMTV integration site family, member 15a (as printed); growth factor, 20 ng/ml, R&D (protein, UniProt P41221 62-380, looked up) Protein Wnt-5a: IIGAQPLCSQLAGLSQGQKKLCHLYQDHMQYIGEGAKTGIKECQYQFRHRRWNCSTVDNTSVFGRVMQIGSRETAFTYAVSAAGVVNAMSRACREGELSTCGCSRAARPKDLPRDWLWGGCGDNIDYGYRFAKEFVDARERERIHAKGSYESARILMNLHNNEAGRRTVYNLADVACKCHGVSGSCSLKTCWLQLADFRKVGDALKEKYDSAAAMRLNSRGKLVQVNSRFNSPTTQDLVYIDPSPDYCVRNESTGSLGTQGRLCNKTSEGMDGCELMCCGRGYDQFKTVQTERCHCKFHWCCYVKCKKCTEIVDQFVCK | – | 33
4 | Wnt1: wingless-type MMTV integration site family, member 1; growth factor, 20 ng/ml, R&D (protein, UniProt P04628 28-370, looked up) Proto-oncogene Wnt-1: ANSSGRWWGIVNVASSTNLLTDSKSLQLVLEPSLQLLSRKQRRLIRQNPGILHSVSGGLQSAVRECKWQFRNRRWNCPTAPGPHLFGKIVNRGCRETAFIFAITSAGVTHSVARSCSEGSIESCTCDYRRRGPGGPDWHWGGCSDNIDFGRLFGREFVDSGEKGRDLRFLMNLHNNEAGRTTVFSEMRQECKCHGMSGSCTVRTCWMRLPTLRAVGDVLRDRFDGASRVLYGNRGSNRASRAELLRLEPEDPAHKPPSPHDLVYFEKSPNFCTYSGRLGTAGTAGRACNSSSPALDGCELLCCGRGHRTRTQRVTERCNCTFHWCCHVSCRNCTHTRVLHECL | slightly more efficient than the others | –
